According to patent US20180116960A1, “TREATING FUNGAL INFECTION OF THE NAIL UNIT” (priority 2009, published 2018):
Where a name gives a salt, the structure may show the parent alone.

What was measured:
[1] = solubility of terbinafine HCl in solvents; assay type: physicochemical; conditions: thermodynamic from solid
Experimental: (§1) With 0.1% Tween-80 in water, the solubility of terbinafine HCl in terbinafine HCl-PEG 3350 blend (75/25, W/W) was 4 mg/mL. […] The final pH was 3.0.
(§2) When DMSO is used as the solvent, the solubility of terbinafine HCl was close to 100 mg/mL. […] The solution was made by weighing 100 mg of terbinafine HCl powder in a glass vial and then adding 1 ml of DMSO solvent. The glass vial was sealed and vortexed for 5 minutes with a mini vortexor. The resulting solution was clear.

[2] = stability of terbinafine HCl solutions on standing; assay type: physicochemical
Experimental: as §1, §2

CN(C/C=C/C#CC(C)(C)C)Cc1cccc2ccccc12 [terbinafine HCl]
solubility at 5 min ([1]; DMSO, organic solvent or mixture): ~100000 µg/mL
solubility ([1]; aqueous buffer, phosphate-buffered saline (PBS 1×, starting pH 7.4), final pH 4.2): 780 µg/mL
solubility ([1]; aqueous with cosolvent or surfactant or cyclodextrin, 0.1% Tween-80 in water, terbinafine HCl in terbinafine HCl-PEG 3350 blend (75/25, W/W), final pH 3.0): 4000 µg/mL
appearance of solution on standing ([2]; 0.1% Tween-80 in water, room temperature, 5 days): clear but turned cloudy
time the solution was stable ([2]; DMSO solution): up to 7 days
concentration of solution on storage ([2]; DMSO solution, after 14 days up to 22 days): remained constant
concentration of solution on storage ([2]; DMSO solution, at 14 days): 90000 µg/mL
